Measurements as given in ChEMBL document CHEMBL3286109, “Structure-activity relationship studies of indole-based compounds as small molecule HIV-1 fusion inhibitors targeting glycoprotein 41” (J Med Chem, 2014).

Columns and labels:
[1] = Inhibition of HIV1 HXB2 gp41-mediated cell-cell fusion between viral envelope-expressing human HL2/3 cells to human TZM-bl cells by luciferase reporter assay; format: cell-based; conditions: Human immunodeficiency virus 1, HXB2, TZM-bl
[2] = system: Human immunodeficiency virus 1; assay: Antiviral activity against HIV-1 Ba-L infected in human MAGI-CCR5 cells assessed as inhibition of viral replication after 48 hrs by chemiluminescence assay; format: functional, organism-based; conditions: Human immunodeficiency virus 1, Ba-L, MAGI-CCR5, 48 h
[3] = Cytotoxicity against human MAGI-CCR5 cells assessed as inhibition of cell viability by MTS assay; format: cell-based; conditions: read-out: TC50 (the source's name)
[4] = Cytotoxicity against human TZM-bl cells assessed as inhibition of cell viability by resazurin assay; conditions: read-out: TC50 (the source's name)
[5] = system: Human immunodeficiency virus 1; assay: Antiviral activity against HIV-1 3B infected in human MAGI-CCR5 cells assessed as inhibition of viral replication after 48 hrs by chemiluminescence assay; format: functional, organism-based; conditions: Human immunodeficiency virus 1, 3B, MAGI-CCR5, 48 h
[6] = Binding affinity to HIV1 Envelope glycoprotein gp41 Fe(env2.0)3 using C18FL as probe by fluorescence assay; design: species or system Human immunodeficiency virus 1

Row | Structure (SMILES) | EC50 [1] | EC50 [2] | CC50 [3] | CC50 [4] | EC50 [5] | Ki [6]
1 | COc1cccc(-c2ccc3ccn(Cc4cccc(C(=O)O)c4)c3c2)c1 | 14 µM | 28 µM | > 100 µM | > 100 µM | – | –
2 | O=C(O)c1cccc(Cn2ccc3ccc(-c4cccc(O)c4)cc32)c1 | 8 µM | 23 µM | 94 µM | 100 µM | – | –
3 | O=C(O)c1cccc(Cn2ccc3ccc(-c4ccc5cc(Cl)ccc5n4)cc32)c1 | – | 48 µM | > 100 µM | 50 µM | – | –
4 | COc1ccc(Cn2ccc3ccc(-c4ccc5ccn(Cc6cccc(C(=O)O)c6)c5c4)cc32)cc1 | – | 0.9 µM | 32 µM | 20 µM | 0.9 µM | –
5 | O=C(O)c1cccc(Cn2ccc3ccc(-c4ccc5ccn(Cc6ccc(F)cc6)c5c4)cc32)c1 | 1.1 µM | 1.6 µM | – | > 25 µM | – | 1.7 µM
6 | O=C(O)c1cccc(Cn2ccc3cc(-c4ccc5cc(Cl)ccc5n4)ccc32)c1 | 8 µM | 6 µM | – | 100 µM | – | –
7 | COc1ccc(Cn2ccc3ccc(-c4ccc5c(ccn5Cc5cccc(C(=O)O)c5)c4)cc32)cc1 | 7 µM | 18 µM | 18 µM | > 100 µM | 19 µM | 3 µM
8 | COc1ccc(Cn2ccc3cc(-c4ccc5ccn(Cc6cccc(C(=O)O)c6)c5c4)ccc32)cc1 | 3.5 µM | 6.9 µM | 24 µM | 91 µM | 8.3 µM | 4.2 µM
9 | O=C(O)c1cccc(Cn2ccc3ccc(-c4ccc5ccn(Cc6cccc(C(=O)O)c6)c5c4)cc32)c1 | 12 µM | 58 µM | > 100 µM | > 100 µM | 67 µM | 0.6 µM
10 | NC(=O)c1cccc(Cn2ccc3ccc(-c4ccc5ccn(Cc6cccc(C(=O)O)c6)c5c4)cc32)c1 | 6 µM | 39 µM | > 100 µM | > 100 µM | 51 µM | 0.8 µM
11 | O=C(O)c1cccc(Cn2ccc3cc(-c4ccc5ccn(Cc6cccc(C(=O)O)c6)c5c4)ccc32)c1 | 2 µM | 20 µM | > 100 µM | > 100 µM | 17 µM | 0.7 µM
12 | O=C(O)c1cccc(Cn2ccc3ccc(-c4ccc5ccn(Cc6ccccc6)c5c4)cc32)c1 | 2 µM | 4.4 µM | > 100 µM | > 50 µM | 4.6 µM | 3.5 µM
13 | COc1cccc(Cn2ccc3ccc(-c4ccc5ccn(Cc6cccc(C(=O)O)c6)c5c4)cc32)c1 | 1 µM | 0.9 µM | 37 µM | 71 µM | 0.9 µM | 1.1 µM
14 | COc1cc(Cn2ccc3ccc(-c4ccc5ccn(Cc6cccc(C(=O)O)c6)c5c4)cc32)cc(OC)c1 | 2.3 µM | 1.5 µM | 49 µM | 93 µM | 1.5 µM | 0.9 µM
15 | O=C(O)c1cccc(Cn2ccc3ccc(-c4ccc5ccn(Cc6ccc(C(F)(F)F)cc6)c5c4)cc32)c1 | 2 µM | 0.9 µM | 52 µM | > 50 µM | 1 µM | 1 µM
16 | O=C(O)c1cccc(Cn2ccc3ccc(-c4ccc5ccn(Cc6ccc(-c7ccccc7)cc6)c5c4)cc32)c1 | 13 µM | 2.1 µM | 55 µM | > 50 µM | 2 µM | 2 µM

Row | Structure (SMILES) | EC50 [1] | EC50 [2] | CC50 [3] | CC50 [4] | EC50 [5] | Ki [6]
17 | O=C(O)c1cccc(Cn2ccc3ccc(-c4ccc5ccn(Cc6ccc(COc7ccccc7)cc6)c5c4)cc32)c1 | 17 µM | 27 µM | > 100 µM | > 100 µM | 32 µM | 6.2 µM
18 | O=C(O)c1cccc(Cn2ccc3ccc(-c4ccc5ccn(Cc6ccc(Oc7ccccc7F)cc6)c5c4)cc32)c1 | 8.2 µM | 5.3 µM | > 100 µM | > 100 µM | 5.5 µM | 9.5 µM
19 | Cn1nnc2ccc(Cn3ccc4ccc(-c5ccc6ccn(Cc7cccc(C(=O)O)c7)c6c5)cc43)cc21 | 2.5 µM | 6.6 µM | 52 µM | > 100 µM | 9.4 µM | 1.5 µM
20 | COc1cccc(Cn2ccc3ccc(-c4ccc5ncn(Cc6cccc(C(=O)O)c6)c5c4)cc32)c1 | 34 µM | 54 µM | > 100 µM | > 100 µM | 57 µM | 6 µM
21 | COc1cccc(Cn2cnc3ccc(-c4ccc5ccn(Cc6cccc(C(=O)O)c6)c5c4)cc32)c1 | 45 µM | 56 µM | > 100 µM | > 100 µM | 63 µM | 4.7 µM
22 | COc1cccc(Cn2ccc3ccc(-c4ccc5c(c4)ncn5Cc4cccc(C(=O)O)c4)cc32)c1 | 6 µM | 48 µM | > 100 µM | > 100 µM | > 100 µM | 3.8 µM
23 | COc1cccc(Cn2cnc3cc(-c4ccc5ccn(Cc6cccc(C(=O)O)c6)c5c4)ccc32)c1 | 56 µM | 28 µM | > 100 µM | > 100 µM | 49 µM | 5.3 µM
24 | COc1cccc(Cc2c[nH]c3cc(-c4ccc5ccn(Cc6cccc(C(=O)O)c6)c5c4)ccc23)c1 | 6 µM | 5.6 µM | 24 µM | 33 µM | 5.8 µM | 0.9 µM
25 | COc1cccc(Cn2ccc3ccc(-c4ccc5c(Cc6cccc(C(=O)O)c6)c[nH]c5c4)cc32)c1 | 7 µM | 18 µM | 34 µM | 57 µM | 18 µM | 1.6 µM
26 | COc1cccc(Cc2c[nH]c3cc(-c4ccc5c(Cc6cccc(C(=O)O)c6)c[nH]c5c4)ccc23)c1 | 4 µM | 5.9 µM | 12 µM | 500 µM | 6.2 µM | 0.9 µM
27 | COC(=O)c1cccc(Cc2c[nH]c3ccc(-c4ccc5[nH]cc(Cc6cccc(C(=O)O)c6)c5c4)cc23)c1 | 2 µM | 5 µM | 31 µM | 99 µM | 4.8 µM | 1.2 µM
28 | O=C(O)c1cccc(Cc2c[nH]c3ccc(-c4ccc5cc[nH]c5c4)cc23)c1 | 5 µM | 13 µM | 80 µM | 194 µM | 13 µM | 1.7 µM
29 | O=C(O)c1cccc(Cc2c[nH]c3cc(-c4ccc5cc[nH]c5c4)ccc23)c1 | 6 µM | 13 µM | 23 µM | 290 µM | 14 µM | 0.6 µM
30 | O=C(O)c1cccc(Cn2cnc3ccc(-c4ccc5cc[nH]c5c4)cc32)c1 | 14 µM | 41 µM | > 100 µM | > 100 µM | 36 µM | 11 µM
31 | O=C(O)c1cccc(Cn2cnc3cc(-c4ccc5cc[nH]c5c4)ccc32)c1 | 124 µM | > 100 µM | > 100 µM | > 100 µM | > 100 µM | 16 µM
32 | Cn1ccc2ccc(-c3ccc4ccn(Cc5cccc(C(=O)O)c5)c4c3)cc21 | 1.3 µM | 4.5 µM | > 50 µM | > 50 µM | 4.3 µM | 0.3 µM
